Source: ChEMBL document CHEMBL2069296, “A novel series of G-quadruplex ligands with selectivity for HIF-expressing osteosarcoma and renal cancer cell lines” (Bioorg Med Chem Lett, 2012)
Each block holds one compound with its values, some of them ahead of it. Activity calls are given as the source filed them. No cut-off for these calls is given here.

Columns and labels:
[1] = tested on: HOS; assay: Antiproliferative activity against human HOS cells after 96 hrs by SRB assay; format: functional, cell-based
[2] = tested on: MG-63; assay: Antiproliferative activity against human MG63 cells after 96 hrs by SRB assay; format: functional, cell-based; settings: MG-63, 96 h
[3] = tested on: HOS-TE85; assay: Antiproliferative activity against human MNNG-HOS cells after 96 hrs by SRB assay; format: functional, cell-based; settings: HOS-TE85, 96 h
[4] = tested on: U2OS; assay: Antiproliferative activity against human U2OS cells after 96 hrs by SRB assay; format: functional, cell-based
[5] = tested on: SAOS-2; assay: Antiproliferative activity against human Saos2 cells after 96 hrs by SRB assay; format: functional, cell-based; settings: SAOS-2, 96 h
[6] = tested on: OST; assay: Antiproliferative activity against human OST cells after 96 hrs by SRB assay; format: functional, cell-based
[7] = Antiproliferative activity against human TC71 cells after 96 hrs by SRB assay; format: functional, cell-based; settings: TC-71, 96 h
[8] = Antiproliferative activity against human TC32 cells after 96 hrs by SRB assay; format: functional, cell-based; settings: TC-32, 96 h
[9] = tested on: MCF7; assay: Antiproliferative activity against human MCF7 cells after 96 hrs by SRB assay; format: functional, cell-based; settings: MCF7, 96 h
[10] = tested on: A549; assay: Antiproliferative activity against human A549 cells after 96 hrs by SRB assay; format: functional, cell-based; settings: A549, 96 h
[11] = tested on: MIA PaCa-2; assay: Antiproliferative activity against human MIAPaCa2 cells after 96 hrs by SRB assay; format: functional, cell-based; settings: MIA PaCa-2, 96 h
[12] = tested on: PANC-1; assay: Antiproliferative activity against human PANC1 cells after 96 hrs by SRB assay; format: functional, cell-based; settings: PANC-1, 96 h
[13] = tested on: HPAC; assay: Antiproliferative activity against human HPAC cells after 96 hrs by SRB assay; format: functional, cell-based
[14] = tested on: PC-3; assay: Antiproliferative activity against human PC3 cells after 96 hrs by SRB assay; format: functional, cell-based; settings: PC-3, 96 h
[15] = Antiproliferative activity against human 786-O cells after 96 hrs by SRB assay; format: functional, cell-based; settings: 786-0, 96 h
[16] = tested on: A498; assay: Antiproliferative activity against human A498 cells after 96 hrs by SRB assay; format: functional, cell-based; settings: A498, 96 h
[17] = Antiproliferative activity against human RCC4 cells after 96 hrs by SRB assay; format: functional, cell-based; settings: RCC4, 96 h
[18] = Antiproliferative activity against human RCC4/VHL cells after 96 hrs by SRB assay; format: functional, cell-based
[19] = Antiproliferative activity against human TC135 cells after 96 hrs by SRB assay; format: functional, cell-based; settings: TC135, 96 h
[20] = tested on: WI-38; assay: Cytotoxicity against human WI38 after 96 hrs by SRB assay; format: cell-based; settings: WI-38, 96 h
[21] = tested on: Nucleic Acid; assay: Binding affinity to HIF1alpha DNA by surface plasmon resonance assay; format: nucleic-acid assay
[22] = tested on: Nucleic Acid; assay: Binding affinity to HIF2alpha DNA by surface plasmon resonance assay; format: nucleic-acid assay
[23] = tested on: Nucleic Acid; assay: Binding affinity to 5'-GGGGCGGGCACGGGGCGGG-3' DNA by surface plasmon resonance; format: nucleic-acid assay
[24] = tested on: Nucleic Acid; assay: Binding affinity to HIF1alpha DNA in by circular dichroism; format: nucleic-acid assay
[25] = Ratio of IC50 for human RCC4/VHL cells to IC50 for human RCC4 cells; format: functional
[26] = Ratio of cell viability in human RCC4/VHL cells to cell viability in human RCC4 cells in hypoxia condition; format: functional
[27] = biological target: Hypoxia-inducible factor 1-alpha (Homo sapiens) (UniProt Q16665); assay: Inhibition of HIF1alpha in human U2OS cells in normaxia condition; format: cell-based
Hypoxia-inducible factor 1-alpha (Homo sapiens), sequence (Q16665 whole entry, looked up): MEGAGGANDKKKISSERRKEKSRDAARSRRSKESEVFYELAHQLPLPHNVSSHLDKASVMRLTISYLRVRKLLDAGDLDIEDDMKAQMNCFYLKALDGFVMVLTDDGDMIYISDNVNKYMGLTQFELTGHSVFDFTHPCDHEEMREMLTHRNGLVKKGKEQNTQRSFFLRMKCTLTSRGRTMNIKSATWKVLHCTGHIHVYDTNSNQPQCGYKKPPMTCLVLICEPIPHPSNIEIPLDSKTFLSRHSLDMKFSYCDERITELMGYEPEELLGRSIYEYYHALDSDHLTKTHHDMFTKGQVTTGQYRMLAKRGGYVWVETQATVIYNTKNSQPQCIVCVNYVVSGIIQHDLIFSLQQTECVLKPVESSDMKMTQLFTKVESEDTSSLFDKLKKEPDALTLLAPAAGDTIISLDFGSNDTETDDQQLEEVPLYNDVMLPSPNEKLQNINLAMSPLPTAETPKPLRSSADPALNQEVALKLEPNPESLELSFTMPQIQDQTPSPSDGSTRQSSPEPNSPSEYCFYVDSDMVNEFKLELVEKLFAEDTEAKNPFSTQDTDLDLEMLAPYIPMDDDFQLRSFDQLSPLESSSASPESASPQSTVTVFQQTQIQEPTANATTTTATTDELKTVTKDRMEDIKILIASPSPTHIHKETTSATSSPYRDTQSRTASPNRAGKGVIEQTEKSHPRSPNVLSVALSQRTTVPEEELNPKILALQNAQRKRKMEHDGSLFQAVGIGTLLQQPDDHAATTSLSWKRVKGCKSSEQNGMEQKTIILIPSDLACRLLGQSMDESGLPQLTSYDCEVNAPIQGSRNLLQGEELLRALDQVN

[28] = biological target: Hypoxia-inducible factor 1-alpha (Homo sapiens) (UniProt Q16665); assay: Inhibition of HIF1alpha in human U2OS cells in hypoxia condition; format: cell-based
[29] = tested on: U2OS; assay: Downregulation of HIF1alpha protein level in human U2OS cells at 5 fold IC50 concentration within 2 hrs by Western blot analysis; format: functional, cell-based
[30] = tested on: U2OS; assay: Downregulation of HIF1alpha mRNA level in human U2OS cells at 5 fold IC50 concentration after 4 hrs by RT-PCR analysis relative to untreated control; format: functional
[31] = biological target: T1, Hypoxia inducible factors; HIF-1-alpha, HIF-2-alpha (Homo sapiens) (UniProt Q16665+Q99814); assay: Inhibition of HIF1 transactivation in human U2OS cells after 4 hrs by luciferase reporter gene assay; format: cell-based
[32] = biological target: T1, Hypoxia inducible factors; HIF-1-alpha, HIF-2-alpha (Homo sapiens); assay: Inhibition of HIF1 transactivation in human U2OS cells after 4 hrs by luciferase reporter gene assay relative to untreated control; format: cell-based; settings: concentration not given here
[33] = Therapeutic index, ratio of IC50 for human MG63 cells to IC50 for human WI38 cells; format: cell-based, WI-38; settings: MG63 cells and WI38 cells, read-out: Ratio IC50
[34] = Therapeutic index, ratio of IC50 for human MNNG-HOS cells to IC50 for human WI38 cells; format: cell-based, HOS-TE85; settings: MNNG-HOS cells and WI38 cells, read-out: Ratio IC50
[35] = Therapeutic index, ratio of IC50 for human U2OS cells to IC50 for human WI38 cells; format: cell-based; settings: U2OS cells and WI38 cells, read-out: Ratio IC50
[36] = Therapeutic index, ratio of IC50 for human OST cells to IC50 for human WI38 cells; format: cell-based; settings: OST cells and WI38 cells, read-out: Ratio IC50
[37] = Therapeutic index, ratio of IC50 for human TC135 cells to IC50 for human WI38 cells; format: cell-based; settings: TC135 cells and WI38 cells, read-out: Ratio IC50
[38] = Therapeutic index, ratio of IC50 for human A549 cells to IC50 for human WI38 cells; format: cell-based; settings: A549 cells and WI38 cells, read-out: Ratio IC50
[39] = Therapeutic index, ratio of IC50 for human MIAPaCa2 cells to IC50 for human WI38 cells; format: cell-based, MIA PaCa-2; settings: MIAPaCa2 cells and WI38 cells, read-out: Ratio IC50
[40] = Therapeutic index, ratio of IC50 for human 786-O cells to IC50 for human WI38 cells; format: cell-based, WI-38; settings: 786-O cells and WI38 cells, read-out: Ratio IC50
[41] = Therapeutic index, ratio of IC50 for human A498 cells to IC50 for human WI38 cells; format: cell-based; settings: A498 cells and WI38 cells, read-out: Ratio IC50

Structure (SMILES): O=C(CN1CCCC1)Nc1cccc(-n2cc(-c3ccc4ccc(-c5cn(-c6cccc(NC(=O)CN7CCCC7)c6)nn5)cc4c3)nn2)c1
- IC50 [1]: 2000 nM
- IC50 [2]: 16 µM
- IC50 [3]: 9 µM
- IC50 [4]: 22 µM
- IC50 [5]: 5.8 µM
- IC50 [6]: 7.1 µM
- IC50 [7]: 75 µM
- IC50 [8]: 3000 nM
- IC50 [9]: > 100 µM
- IC50 [10]: 72 µM
- IC50 [11]: > 100 µM
- IC50 [12]: 29 µM
- IC50 [13]: 9 µM
- IC50 [14]: 25 µM
- IC50 [15]: 6.9 µM
- IC50 [16]: 3.1 µM
- IC50 [17]: 3.2 µM
- IC50 [18]: 2400 nM
- IC50 [19]: 11 µM
- IC50 [20]: 17 µM

Structure (SMILES): CCN(CC)CC(=O)Nc1ccc(-n2cc(-c3ccc4ccc(-c5cn(-c6ccc(NC(=O)CN(CC)CC)cc6)nn5)cc4c3)nn2)cc1
- K [21]: 1.25 ×10⁷ /M
- K [22]: 0.15 ×10⁷ /M
- K [23]: inactive
- IC50 [1]: 75000 nM
- IC50 [2]: 81 µM
- IC50 [3]: 25 µM
- IC50 [4]: 22 µM
- IC50 [5]: 95 µM
- IC50 [6]: 37 µM
- IC50 [7]: > 100 µM
- IC50 [8]: 29000 nM
- IC50 [9]: 100 µM
- IC50 [10]: > 100 µM
- IC50 [11]: > 100 µM
- IC50 [12]: > 100 µM
- IC50 [13]: 52 µM
- IC50 [14]: > 100 µM
- IC50 [15]: 23 µM
- IC50 [16]: 8 µM
- IC50 [17]: 22 µM
- IC50 [18]: 26000 nM
- IC50 [19]: 23 µM
- IC50 [20]: 9 µM

These reach a lower IC50 [4]. Values come first.

- IC50 [4]: 2.2 µM
- IC50 [9]: 8.1 µM
- IC50 [10]: 17 µM
- IC50 [11]: 7.2 µM
- IC50 [12]: 7.8 µM
- IC50 [14]: 7.1 µM
Structure (SMILES): O=C(CCN1CCCC1)Nc1ccc(-n2cc(-c3ccc4ccc(-c5cn(-c6ccc(NC(=O)CCN7CCCC7)cc6)nn5)cc4c3)nn2)cc1
- IC50 [1]: 600 nM
- IC50 [2]: 2.8 µM
- IC50 [3]: 2.1 µM
- IC50 [5]: 1.8 µM
- IC50 [6]: 0.9 µM
- IC50 [7]: 16 µM
- IC50 [8]: 700 nM
- IC50 [13]: 1.9 µM
- IC50 [15]: 6.5 µM
- IC50 [16]: 1.9 µM
- IC50 [17]: 2.5 µM
- IC50 [18]: 2600 nM
- IC50 [19]: 2.2 µM
- IC50 [20]: 3.9 µM

- K [21]: 1.49 ×10⁷ /M
- K [22]: 0.97 ×10⁷ /M
- K [23]: inactive
- IC50 [4]: 18 µM
- IC50 [9]: > 100 µM
- IC50 [10]: 80.5 µM
- IC50 [11]: 25.5 µM
- IC50 [12]: 88 µM
- IC50 [14]: 91 µM
Structure (SMILES): O=C(CN1CCCC1)Nc1ccc(-n2cc(-c3ccc4ccc(-c5cn(-c6ccc(NC(=O)CN7CCCC7)cc6)nn5)cc4c3)nn2)cc1
- IC50 [1]: 2600 nM
- IC50 [2]: > 10 µM
- IC50 [3]: 9.1 µM
- IC50 [5]: 9 µM
- IC50 [6]: 14 µM
- IC50 [7]: 14 µM
- IC50 [8]: 2500 nM
- IC50 [13]: 9.5 µM
- IC50 [15]: 2.6 µM
- IC50 [16]: 3.5 µM
- IC50 [17]: 5.1 µM
- IC50 [18]: 6400 nM
- IC50 [19]: 3.2 µM
- IC50 [20]: 26 µM

- K [21]: 0.29 ×10⁷ /M
- K [22]: 0.27 ×10⁷ /M
- K [23]: < 100000 M⁻¹
- Activity [24]: Active
- IC50 [4]: 5.5 µM
- IC50 [9]: 63 µM
- IC50 [10]: 60 µM
- IC50 [11]: 16.8 µM
- IC50 [12]: 31 µM
- IC50 [14]: 8.05 µM
- inhibition [27]: Dose-dependent effect
- inhibition [28]: Dose-dependent effect
- inhibition [31]: Dose-dependent effect
- inhibition [32]: 7%
Structure (SMILES): CCN(CC)CC(=O)Nc1cccc(-n2cc(-c3ccc4ccc(-c5cn(-c6cccc(NC(=O)CN(CC)CC)c6)nn5)cc4c3)nn2)c1
- IC50 [1]: 2400 nM
- IC50 [2]: 7.9 µM
- IC50 [3]: 3.2 µM
- IC50 [5]: 2.6 µM
- IC50 [6]: 2.6 µM
- IC50 [7]: 7.8 µM
- IC50 [8]: 900 nM
- IC50 [13]: 7.3 µM
- IC50 [15]: 2.3 µM
- IC50 [16]: 2.5 µM
- IC50 [17]: 1.3 µM
- IC50 [18]: 2600 nM
- Ratio IC50 [25]: 2
- Ratio [26]: 2.1
- Activity [29]: Active
- Activity [30]: 79.7%
- IC50 [19]: 2.4 µM
- selectivity ratio [33]: 40
- selectivity ratio [34]: 40
- selectivity ratio [35]: 40
- selectivity ratio [36]: 40
- selectivity ratio [37]: 40
- selectivity ratio [38]: 40
- selectivity ratio [39]: 40
- selectivity ratio [40]: 40
- selectivity ratio [41]: 40
- IC50 [20]: 91 µM
